The subject of experiment [1] is EBC-1 lung cancer cell line. Put plainly: EBC-1 cell proliferation, CellTiter-Glo assay. Conditions: Homo sapiens, 120 h; Ebc-1 cell viability, CTG assay, 5 days of treatment; read-out: CTG 5 day Ebc1 GI50. The experiment is classed as cell-based. The procedure, abridged:
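CellTiter-Glo read-out after 5-day compound treatment, normalised to untreated cells, with GI50 derived by four-parameter logistic regression. Ten concentrations spanning 0.508 nM–10 μM were added to 1000 EBC-1 cells per well the day after seeding. Assays required at least one cell doubling versus Day 0.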

In another experiment the target is T1, HiBiT-tagged BCL-xL (Homo sapiens, UniProt Q07817).
T1 construct: expressed in transfected cells; host or cells: NCI-H1650 (ATCC No. CRL-5883), engineered HiBiT cell line
Put plainly: NCI-H1650 BCL-xL protein levels, Nano-Glo HiBiT Lytic Detection. The experiment is classed as cell-based. The note with it: NCI-H1650 expressing HiBiT-tagged BCL-xL, overnight incubation, read-out: Bcl-xl HIBIT NCIH1650 DC50. The procedure, abridged:
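HiBiT luminescence after cell lysis with LgBiT/furimazine reagent reported BCL-xL levels, expressed relative to untreated wells and fitted with a four-parameter logistic equation. Engineered NCI-H1650 cells were exposed overnight at 37° C to compound at final 0.508 nM-10 μM (10 points, triplicate plates).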

T1 sequence (Q07817 whole entry): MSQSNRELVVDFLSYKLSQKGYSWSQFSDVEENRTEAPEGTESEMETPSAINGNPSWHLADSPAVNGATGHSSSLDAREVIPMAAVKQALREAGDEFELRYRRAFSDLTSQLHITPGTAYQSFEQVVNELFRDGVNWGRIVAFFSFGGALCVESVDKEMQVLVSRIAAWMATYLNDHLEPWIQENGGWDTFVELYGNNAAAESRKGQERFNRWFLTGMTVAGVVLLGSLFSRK

For `Cc1ncsc1-c1ccc([C@H](C)NC(=O)[C@@H]2C[C@@H](O)CN2C(=O)[C@@H](NC(=O)CCCCCCCCCCCCCCCN(C)CCOC23CC4(C)CC(C)(CC(Cn5ncc(-c6ccc(N7CCCc8c7nnc(Nc7nc9ccccc9s7)c8C)nc6C(=O)O)c5C)(C4)C2)C3)C(C)(C)C)cc1` [Example 1, 6-[3-(1,3-benzothiazol-2-ylamino)-4-methyl-6,7-dihydro-5H-pyrido[2,3-c]pyridazin-8-yl]-3-[1-[[3-[2-[[16-[[(1S)-1-[(2S,4R)-4-hydroxy-2-[[(1S)-1-[4-(4-methylthiazol-5-yl)phenyl]ethyl]carbamoyl]pyrrolidine-1-carbonyl]-2,2-dimethyl-propyl]amino]-16-oxo-hexadecyl]-methyl-amino]ethoxy]-5,7-dimethyl-1-adamantyl]methyl]-5-methyl-pyrazol-4-yl]pyridine-2-carboxylic acid], in experiment [1], the GI50 is 5 nM. For the same molecule, at HiBiT-tagged BCL-xL, the DC50 was found to be 1 nM.

With `Cc1ncsc1-c1ccc(CNC(=O)[C@@H]2C[C@@H](O)CN2C(=O)[C@@H](NC(=O)CCCCCCCCCCC(=O)N2CCN(CC#Cc3ccc(OCCCc4sc(N5CCCc6c5nnc(Nc5nc7ccccc7s5)c6C)nc4C(=O)O)c(F)c3)CC2)C(C)(C)C)cc1` [Example 48, 2-(3-(benzo[d]thiazol-2-ylamino)-4-methyl-6,7-dihydropyrido [2,3-c]pyridazin-8(5H)-yl)-5-(3-(2-fluoro-4-(3-(4-(12-(((S)-1-((2S,4R)-4-hydroxy-2-((4-(4-methylthiazol-5-yl)benzyl)carbamoyl)pyrrolidin-1-yl)-3,3-dimethyl-1-oxobutan-2-yl)amino)-12-oxododecanoyl)piperazin-1-yl)prop-1-yn-1-yl)phenoxy)propyl)thiazole-4-carboxylic acid], the concentration for 50% growth inhibition (GI50) in experiment [1] came to 12 nM. In addition, on HiBiT-tagged BCL-xL, the DC50 amounted to 1 nM.

The values are drawn from patent US20240376094A2, “SELECTIVE BCL-XL PROTAC COMPOUNDS AND METHODS OF USE” (Les Laboratoires Servier, priority 2021, published 2024).
